# Test results as given in ChEMBL document CHEMBL1201862, “PubChem BioAssay data set” (2004).
# The source made the active and inactive calls.
# Experiments:
# [1] = Luminescence Cell-Based Dose Retest to Confirm Inhibitors of Cancer Stem Cells. [Related pubchem assays (depositor defined):AID2717, AID2721]; assay type: functional; settings: Homo sapiens
# [2] = cytotoxicity in HMLE control line with eGFP shRNA, dose response, counter-screen for HMLE_sh_ECad selective toxicity project, cell-based, HMLE_sh_eGFP, luminescence (AID 463074); assay type: functional, Homo sapiens;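 further: HMLE human mammary epithelial cells expressing control shRNA against eGFP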
# Cytochrome P450 3A4 = Cytochrome P450 3A4 (Homo sapiens, UniProt P08684);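 further: CYP3A4 tested as one member of a cytochrome P450 panel screen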
# Cytochrome P450 2D6 = Cytochrome P450 2D6 (Homo sapiens, UniProt P10635);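 further: CYP2D6 member of a cytochrome P450 panel assay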
# Cytochrome P450 2C19 = Cytochrome P450 2C19 (Homo sapiens, UniProt P33261); test: Cytochrome panel assay with activity outcomes. Panel member name: p450-cyp2c19 Compounds with AC50 equal or less than 10 uM are considered active; assay type: functional
# [3] = microbe, parasite or virus in culture; assay type: functional; settings: Mycobacterium tuberculosis
# Jurkat = test: antigen receptor-induced NF-kB inhibitors, dose response, Jurkat, luciferase reporter, luminescence, B- and T-cell (AID 489004); assay type: functional, cell-based; settings: Homo sapiens;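 further: NF-kB luciferase reporter Jurkat cells stimulated with PMA plus ionomycin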
# [4] = cytotoxicity in HEK-293T NF-kB-Luc cells, dose response, cytotoxicity control for B/T-cell NF-kB inhibitor project, cell-based, uHTS hits (AID 489019); assay type: functional;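 further: IC50 reflects cytotoxicity as loss of cell viability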
# Vero [5] = test: cells; assay type: functional; settings: Chlorocebus sabaeus
# Vero [6] = test: cells; assay type: functional, cell-based; settings: Chlorocebus sabaeus
# [7] = NIH-3T3 fibroblast cytotoxicity, dose response, cytotoxicity control, cell-based, fluorescence, Alamar Blue, secondary assay (AID 2327); assay type: functional;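 further: NIH-3T3 mouse fibroblasts cultured with fluconazole at 8 µg/mL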
# Exodeoxyribonuclease V = target: T1, Exodeoxyribonuclease V (Escherichia coli (strain K12), UniProt P04993+P07648+P08394); test: E. coli RecBCD inhibitors, dose response, counter-screen for AddAB inhibitor project, absorbance, V66 E. coli, mutant T4 phage (AID 492957); assay type: functional, cell-based, Escherichia coli str. K-12 substr. MG1655
# T1 sequence (P04993 whole entry): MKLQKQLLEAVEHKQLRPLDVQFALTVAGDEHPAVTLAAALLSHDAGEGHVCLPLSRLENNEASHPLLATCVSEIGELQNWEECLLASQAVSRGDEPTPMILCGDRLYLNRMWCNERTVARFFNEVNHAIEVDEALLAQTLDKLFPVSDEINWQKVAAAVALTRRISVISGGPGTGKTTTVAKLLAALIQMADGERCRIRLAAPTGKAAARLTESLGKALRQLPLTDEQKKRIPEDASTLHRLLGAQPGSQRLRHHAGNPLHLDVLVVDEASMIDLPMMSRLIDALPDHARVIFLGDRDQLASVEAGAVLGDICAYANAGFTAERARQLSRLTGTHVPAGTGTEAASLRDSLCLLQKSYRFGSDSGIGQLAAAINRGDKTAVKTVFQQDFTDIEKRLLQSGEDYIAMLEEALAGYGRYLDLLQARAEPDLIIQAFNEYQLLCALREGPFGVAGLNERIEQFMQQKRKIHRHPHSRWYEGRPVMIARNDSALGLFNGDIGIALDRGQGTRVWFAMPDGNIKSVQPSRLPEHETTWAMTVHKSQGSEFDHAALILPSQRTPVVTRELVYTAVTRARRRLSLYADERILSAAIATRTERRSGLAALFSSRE
# T1 sequence (P07648 whole entry): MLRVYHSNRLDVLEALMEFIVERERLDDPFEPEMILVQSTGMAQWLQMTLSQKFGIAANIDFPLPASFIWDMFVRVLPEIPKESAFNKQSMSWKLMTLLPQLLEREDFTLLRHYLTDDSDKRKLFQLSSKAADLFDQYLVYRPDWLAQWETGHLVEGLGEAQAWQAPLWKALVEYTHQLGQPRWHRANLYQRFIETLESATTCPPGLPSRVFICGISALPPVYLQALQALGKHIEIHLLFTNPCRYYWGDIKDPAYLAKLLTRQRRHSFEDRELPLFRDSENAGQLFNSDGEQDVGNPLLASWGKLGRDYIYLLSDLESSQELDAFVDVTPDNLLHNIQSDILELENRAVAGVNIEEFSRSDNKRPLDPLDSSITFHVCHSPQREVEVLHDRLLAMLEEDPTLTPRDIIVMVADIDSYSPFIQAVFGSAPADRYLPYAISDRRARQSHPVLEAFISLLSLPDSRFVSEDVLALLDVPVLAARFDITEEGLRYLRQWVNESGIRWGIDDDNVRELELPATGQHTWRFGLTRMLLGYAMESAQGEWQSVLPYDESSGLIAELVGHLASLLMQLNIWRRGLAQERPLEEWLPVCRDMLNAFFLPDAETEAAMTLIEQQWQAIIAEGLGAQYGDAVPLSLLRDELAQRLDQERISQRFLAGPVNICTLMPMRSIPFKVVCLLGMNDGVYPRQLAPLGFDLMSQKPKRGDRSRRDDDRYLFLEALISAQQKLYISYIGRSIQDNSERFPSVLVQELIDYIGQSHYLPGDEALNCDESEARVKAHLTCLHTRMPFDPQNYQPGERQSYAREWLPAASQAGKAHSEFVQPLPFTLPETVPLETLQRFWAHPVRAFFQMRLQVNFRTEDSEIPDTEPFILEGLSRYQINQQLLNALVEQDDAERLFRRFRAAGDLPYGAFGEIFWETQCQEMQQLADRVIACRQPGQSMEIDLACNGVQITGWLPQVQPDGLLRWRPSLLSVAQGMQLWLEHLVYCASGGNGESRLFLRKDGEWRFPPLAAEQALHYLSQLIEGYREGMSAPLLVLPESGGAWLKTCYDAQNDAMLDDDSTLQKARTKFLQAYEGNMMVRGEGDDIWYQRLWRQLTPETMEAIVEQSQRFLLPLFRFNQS
# T1 sequence (P08394 whole entry): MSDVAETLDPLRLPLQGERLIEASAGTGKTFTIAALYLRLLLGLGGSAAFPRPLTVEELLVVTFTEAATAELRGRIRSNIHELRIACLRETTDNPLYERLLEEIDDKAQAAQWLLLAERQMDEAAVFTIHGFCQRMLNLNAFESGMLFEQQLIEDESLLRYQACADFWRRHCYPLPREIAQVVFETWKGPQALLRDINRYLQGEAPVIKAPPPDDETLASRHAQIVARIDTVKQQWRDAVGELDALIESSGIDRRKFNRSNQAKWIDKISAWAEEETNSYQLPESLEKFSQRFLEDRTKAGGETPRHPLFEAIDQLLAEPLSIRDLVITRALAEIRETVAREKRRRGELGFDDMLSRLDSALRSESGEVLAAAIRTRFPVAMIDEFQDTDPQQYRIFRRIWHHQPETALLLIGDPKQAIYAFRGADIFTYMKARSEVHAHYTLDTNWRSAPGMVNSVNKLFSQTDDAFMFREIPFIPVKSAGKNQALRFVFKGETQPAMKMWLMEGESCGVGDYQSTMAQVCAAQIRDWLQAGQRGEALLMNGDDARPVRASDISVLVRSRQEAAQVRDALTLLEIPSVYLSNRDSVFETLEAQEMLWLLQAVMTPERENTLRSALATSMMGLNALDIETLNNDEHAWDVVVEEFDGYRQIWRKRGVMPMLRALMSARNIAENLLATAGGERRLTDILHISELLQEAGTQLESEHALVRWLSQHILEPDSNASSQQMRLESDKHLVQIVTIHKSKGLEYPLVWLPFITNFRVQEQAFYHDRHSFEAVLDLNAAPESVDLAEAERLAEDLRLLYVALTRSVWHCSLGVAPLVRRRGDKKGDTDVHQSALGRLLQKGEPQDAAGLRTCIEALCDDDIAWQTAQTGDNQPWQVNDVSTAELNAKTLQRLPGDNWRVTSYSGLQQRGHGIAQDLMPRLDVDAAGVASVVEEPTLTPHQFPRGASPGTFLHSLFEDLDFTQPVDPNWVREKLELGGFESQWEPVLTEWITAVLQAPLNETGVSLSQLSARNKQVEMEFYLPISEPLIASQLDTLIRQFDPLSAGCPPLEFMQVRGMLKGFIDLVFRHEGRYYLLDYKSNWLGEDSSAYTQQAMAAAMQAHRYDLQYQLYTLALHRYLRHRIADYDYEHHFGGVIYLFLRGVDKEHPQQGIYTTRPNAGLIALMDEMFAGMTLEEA
# [8] = C. albicans growth with fluconazole, confirmation, fluorescence, retest (AID 2467); assay type: functional, cell-based
# [9] = Counterscreen for AddAB inhibitors: absorbance-based bacterial cell-based high throughput dose response assay for inhibitors of bacterial viability. [Related pubchem assays (depositor defined):AID435030, AID449728, AID449731, AID488942, AID488955, AID488956]; assay type: functional
# [10] = target: T2, Zinc finger protein mex-5 (Caenorhabditis elegans, UniProt Q9XUB2); test: MEX-5/TCR-2 RNA interaction inhibitors, dose response, biochemical, C. elegans, fluorescence polarization (AID 1960)
# T2 sequence (Q9XUB2 whole entry): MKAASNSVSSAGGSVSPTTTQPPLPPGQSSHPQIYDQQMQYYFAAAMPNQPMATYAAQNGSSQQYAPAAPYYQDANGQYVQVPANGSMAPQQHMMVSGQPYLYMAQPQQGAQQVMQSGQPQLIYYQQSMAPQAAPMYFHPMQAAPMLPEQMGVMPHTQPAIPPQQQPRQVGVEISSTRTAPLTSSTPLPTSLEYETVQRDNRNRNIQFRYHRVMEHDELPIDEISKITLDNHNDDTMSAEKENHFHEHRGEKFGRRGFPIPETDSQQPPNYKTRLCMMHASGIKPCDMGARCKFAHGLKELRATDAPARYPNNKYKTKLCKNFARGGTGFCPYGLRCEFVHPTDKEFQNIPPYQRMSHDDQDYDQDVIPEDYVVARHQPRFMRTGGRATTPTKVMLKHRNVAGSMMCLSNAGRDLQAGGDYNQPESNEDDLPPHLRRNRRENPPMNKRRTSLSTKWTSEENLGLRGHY
# [11] = target: T3, RNA-binding protein pos-1 (Caenorhabditis elegans, UniProt G5EF15); test: inhibitors of POS-1/mex-3 RNA binding, dose response, biochemical, fluorescence polarization (AID 1964);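 further: purified POS-1 fused to maltose binding protein made in E. coli; potency of compounds blocking POS-1 binding to fluorescent RNA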
# T3 sequence (G5EF15 whole entry): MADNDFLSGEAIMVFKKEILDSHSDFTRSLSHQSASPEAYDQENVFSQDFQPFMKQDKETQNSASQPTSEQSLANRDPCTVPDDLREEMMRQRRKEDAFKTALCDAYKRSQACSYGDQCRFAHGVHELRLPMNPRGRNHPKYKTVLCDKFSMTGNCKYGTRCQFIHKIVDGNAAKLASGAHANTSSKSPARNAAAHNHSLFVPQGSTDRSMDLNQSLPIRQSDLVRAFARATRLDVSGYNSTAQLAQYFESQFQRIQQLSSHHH
# Cytochrome P450 2D6, sequence (P10635 whole entry): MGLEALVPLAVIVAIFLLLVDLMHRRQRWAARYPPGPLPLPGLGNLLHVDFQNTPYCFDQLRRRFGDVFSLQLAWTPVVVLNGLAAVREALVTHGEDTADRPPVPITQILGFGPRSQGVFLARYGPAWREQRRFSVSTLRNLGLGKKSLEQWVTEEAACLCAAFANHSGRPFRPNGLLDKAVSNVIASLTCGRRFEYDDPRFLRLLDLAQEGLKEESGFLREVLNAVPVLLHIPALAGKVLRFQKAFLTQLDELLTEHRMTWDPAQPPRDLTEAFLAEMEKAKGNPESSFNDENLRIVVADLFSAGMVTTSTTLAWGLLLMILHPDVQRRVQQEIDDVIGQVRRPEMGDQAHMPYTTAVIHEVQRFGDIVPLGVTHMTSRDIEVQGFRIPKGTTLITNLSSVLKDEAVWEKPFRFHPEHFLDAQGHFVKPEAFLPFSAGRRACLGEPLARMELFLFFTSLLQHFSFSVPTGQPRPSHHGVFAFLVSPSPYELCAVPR
# Cytochrome P450 2C19, sequence (P33261 whole entry): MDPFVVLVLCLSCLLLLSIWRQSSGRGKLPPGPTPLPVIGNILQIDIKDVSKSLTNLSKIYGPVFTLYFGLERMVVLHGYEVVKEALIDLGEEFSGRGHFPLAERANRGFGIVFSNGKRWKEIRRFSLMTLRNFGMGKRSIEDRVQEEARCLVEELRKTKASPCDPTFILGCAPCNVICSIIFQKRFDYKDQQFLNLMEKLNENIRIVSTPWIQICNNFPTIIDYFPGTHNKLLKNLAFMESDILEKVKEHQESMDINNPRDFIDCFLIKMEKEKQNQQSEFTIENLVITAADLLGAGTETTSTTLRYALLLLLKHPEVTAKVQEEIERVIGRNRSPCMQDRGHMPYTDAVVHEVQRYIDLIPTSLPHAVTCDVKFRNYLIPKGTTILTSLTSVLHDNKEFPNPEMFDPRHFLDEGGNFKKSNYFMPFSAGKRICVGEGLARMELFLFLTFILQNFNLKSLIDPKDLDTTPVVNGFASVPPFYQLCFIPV
# Cytochrome P450 3A4, sequence (P08684 whole entry): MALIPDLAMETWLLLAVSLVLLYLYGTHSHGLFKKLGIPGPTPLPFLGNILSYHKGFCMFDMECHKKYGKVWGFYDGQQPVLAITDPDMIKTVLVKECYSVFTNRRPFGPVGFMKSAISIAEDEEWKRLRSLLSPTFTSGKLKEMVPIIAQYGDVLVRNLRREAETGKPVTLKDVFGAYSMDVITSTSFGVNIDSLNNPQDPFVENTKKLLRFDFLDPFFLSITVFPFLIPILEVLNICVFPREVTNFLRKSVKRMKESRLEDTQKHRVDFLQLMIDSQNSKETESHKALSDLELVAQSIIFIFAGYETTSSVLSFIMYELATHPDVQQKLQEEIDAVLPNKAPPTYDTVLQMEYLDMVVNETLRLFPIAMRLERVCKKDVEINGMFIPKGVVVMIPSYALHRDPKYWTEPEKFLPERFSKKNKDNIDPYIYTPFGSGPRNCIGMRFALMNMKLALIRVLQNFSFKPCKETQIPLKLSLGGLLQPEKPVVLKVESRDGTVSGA
structure (smiles),measurement,setting,value
Cc1csc(NC(=O)c2ccc(COc3ccccc3)o2)n1,AC50,[1],2.62 µM (active)
same,AC50,[2],32.2 µM (active)
C[C@@H](O)CC(C)(C)N.Oc1c(Cl)c(Cl)c(Cl)c(Cl)c1Cl,AC50,Cytochrome P450 3A4,inconclusive
same,AC50,Cytochrome P450 2D6,inactive
same,AC50,Cytochrome P450 2C19,inactive
c1ccc2sc(Sc3ncnc4sccc34)nc2c1,CC50,[3],32.9 µM (active)
same,IC50,Jurkat,410 nM (active)
same,IC50,[4],> 80 µM (inactive)
CCN1CCN(C(=O)C2CCN(Cc3nc(-c4cccc(Cl)c4)oc3C)CC2)CC1,CC50,Vero [5],> 25 µM (active)
same,IC50,Vero [6],> 25 µM (active)
COc1ccc(C(=O)C=Cc2ccc(OCc3ccccc3)c(OC)c2)cc1OC,CC50,Vero [5],20.9 µM (active)
O=C(NNC(=O)c1cc(-c2ccncc2)nc2ccccc12)c1ccccc1O,EC50,[7],> 160 µM (inactive)
same,IC50,Exodeoxyribonuclease V,> 119 µM (inactive)
same,EC50,[8],3.18 µM (active)
same,IC50,[9],> 119 µM (inactive)
CC(=O)Oc1cc2cccc(OC(C)=O)c(=O)c2c(OC(C)=O)c1OC(C)=O,EC50,[10],2.01 µM (active)
same,EC50,[11],5.6 µM (active)
same,IC50,Exodeoxyribonuclease V,> 119 µM (inactive)
same,IC50,[9],> 119 µM (inactive)
CC(C)(CN)CN,AC50,Cytochrome P450 2D6,inconclusive
ClCCn1cnc2c(SCc3ccccc3Cl)ncnc21,IC50,Vero [6],< 0.05 µM (active)
